# Reference: patent US12214036B2, “Combination therapy comprising AXL/MER and PD-1/PD-L1 inhibitors” (Incyte Corporation, priority 2020, dated 2025)
# Columns and labels:
# CTG-2426 tumors = experiment: PDX model CTG-2426 (myxofibrosarcoma); format: in vivo; settings: athymic nude mice
# Description: (§1) MBT-2 cells were obtained from the Japanese Collection of Research Bioresources Cell Bank and were maintained in DMEM supplemented with 10% FBS. MC38 cells were obtained from the NCI. 4T1 cells were obtained from ATCC and maintained in RPMI media supplemented with 10% FBS. For MBT-2 experiments, 5×10^5 MBT-2 cells were inoculated subcutaneously into the right hind flank of 6- to 8-week-old C3H mice or athymic nude mice (Charles River Laboratories, Wilmington, Mass.). For MC38 studies, 12-week old female C57BL/6 mice were inoculated with brei of MC38 tumors (in-vivo passage 6) into the right hind flank. For 4T1 studies, 7.5×10^5 4 T1 cells were inoculated subcutaneously into the right hind flank of 6- to 8-week-old female BALB/c mice or athymic nude mice (Charles River Laboratories). […] Mice were monitored for tumor growth and overt tolerability over the course of the experiment. […] Tumor volume was calculated using the formula (L×W^2)/2, where L and W refer to the length and width dimensions, respectively. Tumor growth inhibition (TGI) was calculated using the formula (1−(VT/VC))×100, where VT is the tumor volume of the treatment group on the last day of treatment, and VC is the tumor volume of the control group on the last day of treatment. […]
# (§2) The activity of Compound 1 in sarcoma PDX models was evaluated as described in Example H for PDX models. […] Three mice per group were analyzed. […]
# CTG-1861 tumors = experiment: PDX model CTG-1861 (gastrointestinal stromal tumor); format: in vivo; settings: athymic nude mice
# Description: as §1, §2
# MC38 tumor = MC38 tumor model, combination with checkpoint blockade; format: in vivo, C57BL/6 mice
# Description: as §1, with “Laboratories). Mice were randomized by tumor volume with n=10-12 per group.” for “Laboratories).”
# [1] = system: TYRO3-expressing BAF3 cells; experiment: BAF3-TYRO3 cell proliferation assay (CellTiter-Glo); format: cell-based, mouse
# Description: To evaluate the cellular potency and selectivity within the TAM receptor family, mouse BAF3 cell lines with stable expression of AXL, MER, or TYRO3 were generated.
# The cytoplasmic domain of AXL, MER, or TYRO3 fused with dimerization sequence and HA tag was cloned into a pMSCV (murine stem cell virus) vector with a puromycin-resistance marker to generate three constructs individually by electroporation into BAF3 cells. Single clones that were IL-3-independent and puromycin-resistant were selected and characterized. To evaluate effects on BAF3 cell proliferation, 1000 cells/well of BAF3, BAF3-AXL, BAF3 MER, or BAF3-TYRO3 cells were treated in the presence or absence of Compound 1 at various concentrations (10 concentration points with a three-fold dilution factor from the highest concentration of 10 μM) diluted in RPMI-1640 with 2% FBS for 48 hours in a 384-well plate. Cell viability was measured by ATP assay (CellTiter-Glo Assay, Promega, Madison, Wis.) according to the manufacturer's procedure. The data were converted to percent inhibition relative to DMSO control, and IC50 curves were fitted using GraphPad Prism software.
# 179 kinases (c-Met) = experiment: Comprehensive kinase study (179 kinases); format: biochemical; settings: evaluated at 200 nM
# Procedure: Compound 1 was also evaluated at 200 nM in a comprehensive kinase study, which included 179 kinases. […] The mode of inhibition with respect to ATP concentration was evaluated using a MER kinase assay.
smiles,measurement,setting,value
"CC(C)C(=O)N1CCC(c2cc(-c3ccc(NC(=O)c4cn(C(C)C)c(=O)n(-c5ccccn5)c4=O)cc3)c3c(N)ncnn23)CC1 [Compound 1, N-(4-(4-Amino-7-(1-isobutyrylpiperidin-4-yl)pyrrolo[1,2-f][1,2,4]triazin-5-yl)phenyl)-1-isopropyl-2,4-dioxo-3-(pyridin-2-yl)-1,2,3,4-tetrahydropyrimidine-5-carboxamide]",TGI (%),CTG-2426 tumors,42%
same,TGI (%),CTG-1861 tumors,74%
same,antitumor activity (tumor volume),"MC38 tumor; MC38 in C57BL/6 mice, Compound 1 oral BID, anti-PD-L1 15 mg/kg i.p. twice a week, FIG. 8A",single-agent antitumor activity
same,proliferation of CD4+ and CD8+ tumor-infiltrating lymphocytes (Ki67+),"MC38 tumor; MC38 tumors, FIGS. 8B and 8C",induced proliferation
same,selectivity against TYRO3 (cellular),[1]; BAF3 transfectants,> 30 fold
same,IC50,"[1]; Mus musculus, BaF3, 48 hours, 2% FBS, read-out: IC50, growth of TYRO3-expressing BAF3 cells",498 ± 161 nM
same,inhibition of other kinases,179 kinases (c-Met),did not inhibit any other kinases
same,selectivity for AXL and MER compared to c-Met,179 kinases (c-Met),approximately 60 fold
